Data published in patent EP0426029A1, “Injectable formulation for lipophilic drugs” (ABBOTT LABORATORIES, priority 1989, dated 1991).

Tested on: mice
Assay: Mouse scratch test (irritation/pain at the injection site)
Format: in vivo
Protocol: A scratch test was conducted in mice to measure the response to the sensation of irritation, i.e., the pain associated with an injection. Formulations were administered subcutaneously at a dose of 5 ml/kg to groups of mice (10/group) weighing 20 to 40 g each. The number of times that each mouse scratched the injection site was then counted for exactly five minutes.

`CC[C@H]1OC(=O)[C@H](C)[C@@H](O[C@H]2C[C@@](C)(OC)[C@@H](O)[C@H](C)O2)[C@H](C)[C@@H](O[C@@H]2O[C@H](C)C[C@H](N(C)C)[C@H]2O)[C@](C)(OC)C[C@@H](C)C(=O)[C@H](C)[C@@H](O)[C@]1(C)O` [Clarithromycin Lactobionate, Clarithromycin lactobionate] was tested. Which “No. of Scratches” value (Table I, subcutaneous, 5 ml/kg, mice (10/group), scratches of injection site counted for five minutes, 5 mg/ml in clarithromycin) did it give?
The value was 22.0 ± 7.2.

And the “NO. OF SCRATCHES” value (Table II, mouse scratch test, all solutions 5 mg/ml clarithromycin, pH as shown in formulation)?
The value was 15.1 ± 4.4.
